{
  "source": "patent US12377104B1",
  "about": "“Methods for treating a fatty liver disease” (Madrigal Pharmaceuticals, Inc., priority 2024, dated 2025)",
  "test": "MAESTRO-NASH: thyroid hormones at week 52",
  "format": "in vivo, human",
  "data": [
    {"smiles": "CC(C)c1cc(Oc2c(Cl)cc(-n3nc(C#N)c(=O)[nH]c3=O)cc2Cl)n[nH]c1=O", "note": "[Resmetirom, 2-(3,5-dichloro-4-((5-isopropyl-6-oxo-1,6-dihydropyridazin-3-yl)oxy)phenyl)-3,5-dioxo-2,3,4,5-tetrahydro-1,2,4-triazine-6-carbonitrile]", "values": [
      {"measurement": "FT3 (not on thyroxine), LS mean CFB", "setting": "80 mg, Week 52", "value": -0.01, "unit": "ng/L"},
      {"measurement": "FT3 (not on thyroxine), LS mean difference from PBO (CFB)", "setting": "80 mg, Week 52", "value": 0.01, "unit": "ng/L"},
      {"measurement": "FT3 (thyroxine-treated), LS mean CFB", "setting": "80 mg, Week 52", "value": 0.04, "unit": "ng/L"},
      {"measurement": "FT3 (thyroxine-treated), LS mean difference from PBO (CFB)", "setting": "80 mg, Week 52", "value": 0.05, "unit": "ng/L"},
      {"measurement": "FT3, LS mean CFB", "setting": "80 mg, Week 52", "value": -0.01, "unit": "ng/L"},
      {"measurement": "FT3, LS mean difference from PBO (CFB)", "setting": "80 mg, Week 52", "value": 0.02, "unit": "ng/L"},
      {"measurement": "FT3/rT3 (not on thyroxine), LS mean CFB", "setting": "80 mg, Week 52", "value": 0.06},
      {"measurement": "FT3/rT3 (not on thyroxine), LS mean difference from PBO (CFB)", "setting": "80 mg, Week 52", "value": 0.06},
      {"measurement": "FT3/rT3 (thyroxine-treated), LS mean CFB", "setting": "80 mg, Week 52", "value": 0.05},
      {"measurement": "FT3/rT3 (thyroxine-treated), LS mean difference from PBO (CFB)", "setting": "80 mg, Week 52", "value": 0.06},
      {"measurement": "FT3/rT3, LS mean difference from PBO (CFB)", "setting": "80 mg, Week 52", "value": 0.06},
      {"measurement": "FT4 (not on thyroxine), LS mean % CFB", "setting": "80 mg, Week 52", "value": "−13.8", "unit": "%"},
      {"measurement": "FT4 (not on thyroxine), LS mean CFB", "setting": "80 mg, Week 52", "value": 0.16, "unit": "ng/dL"},
      {"measurement": "FT4 (not on thyroxine), LS mean difference from PBO (% CFB)", "setting": "80 mg, Week 52", "value": "−16.3", "unit": "%"},
      {"measurement": "FT4 (not on thyroxine), LS mean difference from PBO (CFB)", "setting": "80 mg, Week 52", "value": -0.18, "unit": "ng/dL"},
      {"measurement": "FT4 (thyroxine-treated), LS mean % CFB", "setting": "80 mg, Week 52", "value": "−14.0", "unit": "%"},
      {"measurement": "FT4 (thyroxine-treated), LS mean CFB", "setting": "80 mg, Week 52", "value": 0.18, "unit": "ng/dL"},
      {"measurement": "FT4 (thyroxine-treated), LS mean difference from PBO (% CFB)", "setting": "80 mg, Week 52", "value": "−17.9", "unit": "%"},
      {"measurement": "FT4 (thyroxine-treated), LS mean difference from PBO (CFB)", "setting": "80 mg, Week 52", "value": -0.21, "unit": "ng/dL"},
      {"measurement": "FT4, LS mean % CFB", "setting": "80 mg, Week 52", "value": 13.9, "unit": "%"},
      {"measurement": "FT4, LS mean CFB", "setting": "80 mg, Week 52", "value": -0.17, "unit": "ng/dL"},
      {"measurement": "FT4, LS mean difference from PBO (% CFB)", "setting": "80 mg, Week 52", "value": "−16.6", "unit": "%"},
      {"measurement": "FT4, LS mean difference from PBO (CFB)", "setting": "80 mg, Week 52", "value": -0.19, "unit": "ng/dL"},
      {"measurement": "TBG (not on thyroxine), LS mean CFB", "setting": "80 mg, Week 52", "value": 0.19, "unit": "mg/L"},
      {"measurement": "TBG (not on thyroxine), LS mean difference from PBO (CFB)", "setting": "80 mg, Week 52", "value": -1.8, "unit": "mg/L"},
      {"measurement": "TBG (thyroxine-treated), LS mean CFB", "setting": "80 mg, Week 52", "value": 1.1, "unit": "mg/L"},
      {"measurement": "TBG (thyroxine-treated), LS mean difference from PBO (CFB)", "setting": "80 mg, Week 52", "value": -2.6, "unit": "mg/L"},
      {"measurement": "TBG, LS mean CFB", "setting": "80 mg, Week 52", "value": -0.32, "unit": "mg/L"},
      {"measurement": "TBG, LS mean difference from PBO (CFB)", "setting": "80 mg, Week 52", "value": -1.9, "unit": "mg/L"},
      {"measurement": "TSH (not on thyroxine), LS mean CFB", "setting": "80 mg, Week 52", "value": "−0.23", "unit": "mIU/L"},
      {"measurement": "TSH (not on thyroxine), LS mean difference from PBO (CFB)", "setting": "80 mg, Week 52", "value": "−0.15", "unit": "mIU/L"},
      {"measurement": "TSH (thyroxine-treated), LS mean CFB", "setting": "80 mg, Week 52", "value": "−0.63", "unit": "mIU/L"},
      {"measurement": "TSH (thyroxine-treated), LS mean difference from PBO (CFB)", "setting": "80 mg, Week 52", "value": "−0.41", "unit": "mIU/L"},
      {"measurement": "TSH, LS mean CFB", "setting": "80 mg, Week 52", "value": "−0.28", "unit": "mIU/L"},
      {"measurement": "TSH, LS mean difference from PBO (CFB)", "setting": "80 mg, Week 52", "value": "−0.18", "unit": "mIU/L"},
      {"measurement": "rT3 (not on thyroxine), LS mean CFB", "setting": "80 mg, Week 52", "value": -4.5, "unit": "ng/dL"},
      {"measurement": "rT3 (not on thyroxine), LS mean difference from PBO (CFB)", "setting": "80 mg, Week 52", "value": -4.5, "unit": "ng/dL"},
      {"measurement": "rT3 (thyroxine-treated), LS mean CFB", "setting": "80 mg, Week 52", "value": -5.1, "unit": "ng/dL"},
      {"measurement": "rT3 (thyroxine-treated), LS mean difference from PBO (CFB)", "setting": "80 mg, Week 52", "value": 5.1, "unit": "ng/dL"},
      {"measurement": "rT3, LS mean CFB", "setting": "80 mg, Week 52", "value": -4.6, "unit": "ng/dL"},
      {"measurement": "rT3, LS mean difference from PBO (CFB)", "setting": "80 mg, Week 52", "value": -4.73, "unit": "ng/dL"},
      {"measurement": "rT3, LS mean CFB", "setting": "80 mg, week 52", "value": 4.6, "unit": "ng/dL"},
      {"measurement": "rT3, LS mean CFB difference from PBO", "setting": "80 mg, week 52", "value": -4.7, "unit": "ng/dL"},
      {"measurement": "FT3 (not on thyroxine), LS mean CFB", "setting": "100 mg, Week 52", "value": -0.08, "unit": "ng/L"},
      {"measurement": "FT3 (not on thyroxine), LS mean difference from PBO (CFB)", "setting": "100 mg, Week 52", "value": -0.06, "unit": "ng/L"},
      {"measurement": "FT3 (thyroxine-treated), LS mean CFB", "setting": "100 mg, Week 52", "value": -0.03, "unit": "ng/L"},
      {"measurement": "FT3 (thyroxine-treated), LS mean difference from PBO (CFB)", "setting": "100 mg, Week 52", "value": 0.01, "unit": "ng/L"},
      {"measurement": "FT3, LS mean CFB", "setting": "100 mg, Week 52", "value": 0.08, "unit": "ng/L"},
      {"measurement": "FT3, LS mean difference from PBO (CFB)", "setting": "100 mg, Week 52", "value": -0.05, "unit": "ng/L"},
      {"measurement": "FT3/rT3 (not on thyroxine), LS mean CFB", "setting": "100 mg, Week 52", "value": 0.06},
      {"measurement": "FT3/rT3 (not on thyroxine), LS mean difference from PBO (CFB)", "setting": "100 mg, Week 52", "value": 0.07},
      {"measurement": "FT3/rT3 (thyroxine-treated), LS mean CFB", "setting": "100 mg, Week 52", "value": 0.06},
      {"measurement": "FT3/rT3 (thyroxine-treated), LS mean difference from PBO (CFB)", "setting": "100 mg, Week 52", "value": 0.06},
      {"measurement": "FT3/rT3, LS mean difference from PBO (CFB)", "setting": "100 mg, Week 52", "value": 0.07},
      {"measurement": "FT4 (not on thyroxine), LS mean % CFB", "setting": "100 mg, Week 52", "value": "−17.6", "unit": "%"},
      {"measurement": "FT4 (not on thyroxine), LS mean CFB", "setting": "100 mg, Week 52", "value": -0.21, "unit": "ng/dL"},
      {"measurement": "FT4 (not on thyroxine), LS mean difference from PBO (% CFB)", "setting": "100 mg, Week 52", "value": 20.0, "unit": "%"},
      {"measurement": "FT4 (not on thyroxine), LS mean difference from PBO (CFB)", "setting": "100 mg, Week 52", "value": -0.23, "unit": "ng/dL"},
      {"measurement": "FT4 (thyroxine-treated), LS mean % CFB", "setting": "100 mg, Week 52", "value": 20.6, "unit": "%"},
      {"measurement": "FT4 (thyroxine-treated), LS mean CFB", "setting": "100 mg, Week 52", "value": -0.26, "unit": "ng/dL"}
    ]}
  ]
}
